Assay results from patent publication US20220265656A1, “COMBINATION THERAPIES WITH IRE1 SMALL MOLECULE INHIBITORS” (Cornell University, priority 2019, published 2022).

Tested on: MDA-MB-231 tumors
Assay: MDA-MB-231 human triple negative breast carcinoma xenograft in athymic nude mice
Format: in vivo, mouse
Settings: MDA-MB-231 xenograft mice, 24 hours after first dose and at endpoint/Day 29
Description: Tumor Cell Culture and Implantation: MDA-MB-231 cells were grown to mid-log phase in RPMI 1640 medium containing 10% fetal bovine serum, 2 mM glutamine, 100 units/mL sodium penicillin G, 25 μg/mL gentamicin, and 100 μg/mL streptomycin sulfate. The tumor cells were cultured in tissue culture flasks in a humidified incubator at 37° C., in an atmosphere of 5% CO2 and 95% air. The cells were harvested during exponential growth and resuspended in cold phosphate buffered saline (PBS). Each test animal was injected subcutaneously in the right flank with 5×10^6 MDA-MB-231 cells in a 0.1 mL cell suspension. Tumor growth was monitored as the average tumor size approached the target range of 100 to 150 mm^3. Tumors were measured in two dimensions using calipers, and volume was calculated using the formula:
where w=width and l=length in mm of a MDA-MB-231 tumor. […]
Endpoint and Tumor Growth Inhibition (TGI) Analysis: Tumors were measured using calipers twice a week for the study duration. […] The study ended on Day 29 and data from this day was analyzed to determine the MTV (n), the median tumor volume for the number of animals, n, on the final day (Day 29) for each group. […] Percent tumor growth inhibition (% TGI) was defined as the difference between the MTV of the designated control group (Group 1) and the MTV of the drug-treated group, expressed as a percentage of the MTV of the control; group: […]

Compound: COc1cc2c(C)c(CC(=O)N3CCOCC3)c(=O)oc2c(C=O)c1O [MKC-8866]
- exposure (plasma compound levels): significantly higher with multi-dosing
